One may read the AUC(0-inf) as total exposure, with the tail of the curve extrapolated. One may read the Cmax as the highest concentration seen after dosing. A word on the Tmax: it is the time at which the peak concentration occurs. In general, Vd refers to a proportionality between amount in the body and measured concentration, not a real space. High values mean wide distribution into tissue, low ones little distribution into tissue. By clearance is commonly meant a measure of how efficiently the substance is removed, as volume per time.

The values that follow come from article PMC6732734 (Heliyon, 2019).

A short description of the data set: In vivo gentamicin release / pharmacokinetics after tail vein injection. On the set-up: species or system Wistar rats. The note with it: rat.

As to `CNC(C)C1CCC(N)C(OC2C(N)CC(N)C(OC3OCC(C)(O)C(NC)C3O)C2O)O1` (stereo not drawn) [Pure drug, Gentamicin], under “male, Wistar, plasma, iv, 2 mg”, the AUC(0-inf) was 203 µg·h/mL, the peak level (Cmax) was 8400 ng/mL, the Tmax came to 1 h and the Vd came to 0.1 L/kg. Besides, the clearance (male, Wistar, plasma, iv, 2 mg) is 5 mL/h/kg. In addition, where the note is “intravenous”, the “time up to which gentamicin was detectable in the plasma” value is reported as “up to 6 h”.
